# Test results reported in patent US20220160652A1, “USE OF VITAMIN K IN COMBINATION WITH ANTICOAGULANTS” (KAYDENCE PHARMA AS, priority 2019, published 2022).
# Legend:
# Assay type in all cases: cell-based
# [1] = test system: human vascular smooth muscle cells (hVSMCs); test: Vitamin K2 (MK-7) and ATP pathway: ATP luminescence with warfarin; details: warfarin 50 μM with vitamin K2 (MK-7) 10 μM, 24 hours
# Procedure: This study was performed in order to determine the effect of vitamin K2 (MK-7) on warfarin-induced oxidative stress in muscles. To perform this study, human vascular smooth muscle cells (hVSMCs; 5,000 cells/well) were plated in 96-well dark plates and left to adhere overnight. Next, cells were incubated for 24 hours with either vehicle only (as blank control), warfarin (10 or 50 μM), vitamin K2 (MK-7) (10 μM), or a combination of warfarin (50 μM) and vitamin K2 (MK-7) (10 μM). Hoechst was added to correct for cell number (1 μg/mL). Next, ATP was measured using mammalian lysis buffer for 5 minutes after which 50 μL ATP substrate solution was added to the wells and incubated for 10 minutes in a dark environment. Finally, medium was transferred to a white plate to measure luminescence.
# VSMCs [2] = test: Oxidative stress in VSMCs (DCFDA fluorescence); details: 10 μM, fluorescence measured for 6 hours
# Procedure: It is known that the level of reactive oxygen species in cells can be measured by measuring the conversion of 2′,7′—dichlorofluorescein diacetate (DCFDA) to the fluorescent dye 2′,7′-dichlorofluorescein (DCF). The fluorescence generated by cells subjected to DCFDA is directly proportional to the amount of oxidized DCFDA to DCF.
# To perform the study, VSMCs (10,000 cells/well) were plated in a 96-well plate and left to adhere overnight. Next, cells were incubated for 1 hour with 20 μM DCFDA. The medium was then changed to medium supplemented with 10 μM vitamin K2 (MK-7). To visualize intracellular oxidative stress, fluorescence was measured for 6 hours and fluorescence intensity was normalized for cell count.
# VSMCs [3] = test: ATP increase, 48 h incubation with CoCl2 comparison (luminescence); details: 10 μM, vs CoCl2 100 μM
# Procedure: This study was performed to further investigate the origin of ATP production that is influenced by vitamin K2 (MK-7). To perform this study, VSCMs (5000 cells/well) were plated in 96-well plates and left to adhere overnight. Next, cells were incubated for 48 hours with either vehicle, CoCl2 (100 μM), vitamin K2 (MK-7) (10 μM), or UQ10 (10 μM). Hoechst was added to correct for cell number (1 μg/mL). Next, ATP was measured using mammalian lysis buffer for 5 minutes, after which 50 μL ATP substrate solution was added to the wells and incubated for 10 minutes in a dark environment. Finally, medium was transferred to a white plate to measure luminescence.
# VSMCs [4] = test: Vitamin K2 (MK-7) and hypoxia: ATP on co-treatment with CoCl2; details: co-treatment CoCl2 100 μM and 10 μM, 24 hours
# Procedure: This study was performed to investigate whether vitamin K2 (MK-7) can prevent the hypoxia-induced decrease in ATP (CoCl2 treatment, thereby stabilization of HIF1a). To perform this study, VSMCs were co-treated with CoCl2 and vitamin K2 (MK-7).
# First, VSCMs (5000 cells/well) were plated in 96-well plates and left to adhere overnight. Next, cells were incubated for 24 hours with either CoCl2 (100 μM) or CoCl2 and vitamin K2 (MK-7) or UQ10 together (100 and 10 μM, respectively). Next, ATP was measured and corrected for cell numbers. CoCl2 values were set as relative to CoCl2 co-treated with vitamin K2 (MK-7) or UQ10. Hoechst was added to correct for cell number (1 μg/mL). Next, ATP was measured using mammalian lysis buffer for 5 minutes after which 50 μL ATP substrate solution was added to the wells and incubated for 10 minutes in a dark environment. Finally, medium was transferred to a white plate to measure luminescence.
# VSMCs [5] = test: Vitamin K2 (MK-7) effect on ATP over time; details: 10 μM, indicated time points
# Procedure: This study was performed to investigate the effect of vitamin K2 (MK-7) on ATP over time. It is known that all cells, including VSMCs, proliferate. The term cell growth is used in the contexts of biological cell development and cell division (reproduction). When used in the context of cell division, it refers to growth of cell populations, where a cell, known as the “mother cell,” grows and divides to produce two “daughter cells” (M phase). When used in the context of cell development, the term refers to increase in cytoplasmic and organelle volume (G1 phase), as well as increase in genetic material (G2 phase) following the replication during S phase. When a cell is quiescent, this phase is called G0. Cell populations go through a particular type of exponential growth called doubling. Each generation of cells should be twice as numerous as the previous generation. However, the number of generations only gives a maximum figure as not all cells survive in each generation.
# To perform this study, first, VSCMs (5000 cells/well) were plated in 96-well plates and left to adhere overnight. […] Next, ATP was measured using mammalian lysis buffer for 5 minutes, after which 50 μL ATP substrate solution was added to the wells and incubated for 10 minutes in a dark environment. Finally, medium was transferred to a white plate to measure luminescence.
compound,measurement,setting,value
CC(C)=CCC/C(C)=C/CC/C(C)=C/CC/C(C)=C/CC/C(C)=C/CC/C(C)=C/CC/C(C)=C/CC1=C(C)C(=O)c2ccccc2C1=O [vitamin K2 (MK-7)],oxidative stress induced by warfarin,[1],counteracted the oxidative stress induced by warfarin
same,oxidative stress in VSMCs (DCF fluorescence),VSMCs [2],clearly reduced the oxidative stress
same,ATP levels compared to CoCl2,VSMCs [3],significant higher ATP levels
same,prevention of hypoxia-induced (CoCl2) decrease in ATP generation,VSMCs [4],could (partially) prevent the decreased ATP generation
same,ATP production in VSMCs over time,VSMCs [5],stimulated ATP production in VSMCs
